In brackets after ≈: the same amount, converted by molar mass. Starred links: 1 amine or outer side, 2 acyl side, 3 side chain; linkers in the order of their positions; H or OH if unused. Positions of bridges follow the written chain, without caps; N, C: chain ends. Residues, ends and D or L forms follow the SMILES beside them. 2,2'Bipyridine(5,5'-diCH2) = c1cc(-c2ccc(C[*:2])cn2)ncc1C[*:1]; Naphthalene(2,6-diCH2) = c1cc2cc(C[*:2])ccc2cc1C[*:1]; pXylylene = c1cc(C[*:2])ccc1C[*:1]
Columns and labels:
[1] = tested on: Escherichia coli (E. coli); assay type: cell-based; conditions: microbroth dilution, 20-24 hours at 37° C.
Summary of the method: (§1)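 MIC by broth microdilution adapted from CLSI, in Mueller-Hinton broth or cation-adjusted MHB II, at a final inoculum of 5×10^5 CFU/ml. Overnight cultures were diluted and regrown 3-4 h before use. Serially diluted peptide was incubated 20-24 h at 37° C, and MIC was the lowest concentration showing no visible growth.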

[2] = tested on: Acinetobacter baumannii (A. baumannii); assay type: cell-based; conditions: microbroth dilution, 20-24 hours at 37° C.
Summary of the method: as §1

[3] = tested on: Staphylococcus aureus (S. aureus); assay type: cell-based; conditions: microbroth dilution, 20-24 hours at 37° C.
Summary of the method: as §1

[4] = tested on: Pseudomonas aeruginosa (P. aeruginosa); assay type: cell-based; conditions: microbroth dilution, 20-24 hours at 37° C.
Summary of the method: as §1

[5] = tested on: Klebsiella pneumoniae (K. pneumoniae); assay type: cell-based; conditions: microbroth dilution, 20-24 hours at 37° C.
Summary of the method: as §1

[6] = 90 minute cytotoxicity assay (LDH release), renal toxicity; assay type: cell-based; conditions: 90 minutes of incubation, LDH release; read-out: Inhibitory Concentration at 50% Cytotoxicity (IC50) Human Renal Proximal Tubule Epithelial Cells (RPTEC)
Summary of the method: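 RPTEC plated overnight, given fresh medium, then exposed to serial peptide dilutions or vehicle for 90 min at 37° C. Medium LDH measured by 10 min reagent incubation and absorbance at 490 nm.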

[7] = 48 hours cytotoxicity assay (CellTiter-Glo), liver toxicity; assay type: cell-based, human; conditions: 48 hours of incubation, CellTiter-Glo; read-out: Inhibitory Concentration at 50% Cytotoxicity (IC50) Human Liver Cells (HepG2)
Summary of the method: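 HepG2 cells in EMEM with 10% FBS, allowed to attach 4 h, then exposed to serially diluted StAMPs or vehicle for 48 h at 37 °C. Viability read by CellTiter-Glo luminescence.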

Structure (SMILES)	Minimum Inhibitory Concentration (MIC) E. coli [1]	Minimum Inhibitory Concentration (MIC) A. baumannii [2]	Minimum Inhibitory Concentration (MIC) S. aureus [3]	Minimum Inhibitory Concentration (MIC) P. aeruginosa [4]	Minimum Inhibitory Concentration (MIC) K. pneumoniae [5]	IC50 [6]	IC50 [7]
CC[C@H](C)[C@H](NC(=O)CN)C(=O)N[C@@H](Cc1ccccc1)C(=O)N[C@@H](CO)C(=O)N[C@@H](CCCCN)C(=O)N[C@@H](CC(C)C)C(=O)N[C@@H](C)C(=O)NCC(=O)N[C@@H](CCCCN)C(=O)N[C@@H](CCCCN)C(=O)N[C@H](C(=O)N[C@@H](CCCCN)C(=O)N[C@@H](CC(N)=O)C(=O)N[C@@H](CC(C)C)C(=O)N[C@@H](CC(C)C)C(=O)N[C@H]1CSCc2ccc(cc2)CSC[C@@H](C(=O)NCC(N)=O)NC(=O)[C@H](CC(C)C)NC(=O)CNC(=O)[C@H](CO)NC1=O)[C@@H](C)CC [compound 33] (H-GIFSKLAGKKIKNLLCSGLCG-NH2; linker 16-20 via pXylylene)	4 µg/mL	4 µg/mL	64 µg/mL	16 µg/mL	8 µg/mL	59 µg/mL (≈ 26.2 µM)	57 µg/mL (≈ 25.3 µM)
CC[C@H](C)[C@H](NC(=O)[C@H](CC(C)C)NC(=O)[C@H](CC(C)C)NC(=O)[C@H](CC(N)=O)NC(=O)[C@H](CCCCN)NC(=O)[C@@H](NC(=O)[C@H](CCCCN)NC(=O)[C@H](CCCCN)NC(=O)[C@@H]1CSCc2ccc(nc2)-c2ccc(cn2)CSC[C@H](N)C(=O)N[C@@H]([C@@H](C)CC)C(=O)N[C@@H](Cc2ccccc2)C(=O)N[C@@H](CO)C(=O)N[C@@H](CCCCN)C(=O)N[C@@H](CC(C)C)C(=O)N[C@@H](C)C(=O)N1)[C@@H](C)CC)C(=O)N[C@@H](CO)C(=O)NCC(=O)N[C@@H](CC(C)C)C(=O)N[C@@H](CCCCN)C(=O)NCC(N)=O [compound 49] (H-CIFSKLACKKIKNLLISGLKG-NH2; linker 1-8 via 2,2'Bipyridine(5,5'-diCH2); N-terminus assumed)	32 µg/mL	32 µg/mL	>64 µg/mL	>64 µg/mL	>64 µg/mL	60 µg/mL (≈ 24.4 µM)	22 µg/mL (≈ 8.95 µM)
CC[C@H](C)[C@H](NC(=O)[C@H](CC(C)C)NC(=O)[C@H](CC(C)C)NC(=O)[C@H](CC(N)=O)NC(=O)[C@H](CCCCN)NC(=O)[C@@H](NC(=O)[C@H](CCCCN)NC(=O)[C@H](CCCCN)NC(=O)[C@@H]1CSCc2ccc3cc(ccc3c2)CSC[C@H](N)C(=O)N[C@@H]([C@@H](C)CC)C(=O)N[C@@H](Cc2ccccc2)C(=O)N[C@@H](CO)C(=O)N[C@@H](CCCCN)C(=O)N[C@@H](CC(C)C)C(=O)N[C@@H](C)C(=O)N1)[C@@H](C)CC)C(=O)N[C@@H](CO)C(=O)NCC(=O)N[C@@H](CC(C)C)C(=O)N[C@@H](CCCCN)C(=O)NCC(N)=O [compound 50] (H-CIFSKLACKKIKNLLISGLKG-NH2; linker 1-8 via Naphthalene(2,6-diCH2); N-terminus assumed)	16 µg/mL	8 µg/mL	64 µg/mL	>64 µg/mL	32 µg/mL	17 µg/mL (≈ 7 µM)	103 µg/mL (≈ 42.4 µM)
CC[C@H](C)[C@H](NC(=O)[C@H](CC(C)C)NC(=O)[C@H](CC(C)C)NC(=O)[C@H](CC(N)=O)NC(=O)[C@H](CCCCN)NC(=O)[C@@H](NC(=O)[C@H](CCCCN)NC(=O)[C@@H]1CSCc2ccc3cc(ccc3c2)CSC[C@H](NC(=O)CN)C(=O)N[C@@H](Cc2ccccc2)C(=O)N[C@@H](CO)C(=O)N[C@@H](CCCCN)C(=O)N[C@@H](CC(C)C)C(=O)N[C@@H](C)C(=O)NCC(=O)N1)[C@@H](C)CC)C(=O)N[C@@H](CO)C(=O)NCC(=O)N[C@@H](CC(C)C)C(=O)N[C@@H](CCCCN)C(=O)NCC(N)=O [compound 52] (H-GCFSKLAGCKIKNLLISGLKG-NH2; linker 2-9 via Naphthalene(2,6-diCH2); N-terminus assumed)	32 µg/mL	32 µg/mL	>64 µg/mL	>64 µg/mL	>64 µg/mL	> 200 µg/mL	10 µg/mL (≈ 4.34 µM)
CC[C@H](C)[C@H](NC(=O)CN)C(=O)N[C@H]1CSCc2ccc(nc2)-c2ccc(cn2)CSC[C@@H](C(=O)N[C@H](C(=O)N[C@@H](CCCCN)C(=O)N[C@@H](CC(N)=O)C(=O)N[C@@H](CC(C)C)C(=O)N[C@@H](CC(C)C)C(=O)N[C@H](C(=O)N[C@@H](CO)C(=O)NCC(=O)N[C@@H](CC(C)C)C(=O)N[C@@H](CCCCN)C(=O)NCC(N)=O)[C@@H](C)CC)[C@@H](C)CC)NC(=O)[C@H](CCCCN)NC(=O)CNC(=O)[C@H](C)NC(=O)[C@H](CC(C)C)NC(=O)[C@H](CCCCN)NC(=O)[C@H](CO)NC1=O [compound 54] (H-GICSKLAGKCIKNLLISGLKG-NH2; linker 3-10 via 2,2'Bipyridine(5,5'-diCH2); N-terminus assumed)	8 µg/mL	8 µg/mL	64 µg/mL	64 µg/mL	16 µg/mL	81 µg/mL (≈ 35.3 µM)	43 µg/mL (≈ 18.7 µM)
CC[C@H](C)[C@H](NC(=O)CN)C(=O)N[C@H]1CSCc2ccc3cc(ccc3c2)CSC[C@@H](C(=O)N[C@H](C(=O)N[C@@H](CCCCN)C(=O)N[C@@H](CC(N)=O)C(=O)N[C@@H](CC(C)C)C(=O)N[C@@H](CC(C)C)C(=O)N[C@H](C(=O)N[C@@H](CO)C(=O)NCC(=O)N[C@@H](CC(C)C)C(=O)N[C@@H](CCCCN)C(=O)NCC(N)=O)[C@@H](C)CC)[C@@H](C)CC)NC(=O)[C@H](CCCCN)NC(=O)CNC(=O)[C@H](C)NC(=O)[C@H](CC(C)C)NC(=O)[C@H](CCCCN)NC(=O)[C@H](CO)NC1=O [compound 55] (H-GICSKLAGKCIKNLLISGLKG-NH2; linker 3-10 via Naphthalene(2,6-diCH2); N-terminus assumed)	8 µg/mL	8 µg/mL	32 µg/mL	32 µg/mL	16 µg/mL	23 µg/mL (≈ 10.1 µM)	53 µg/mL (≈ 23.4 µM)
CC[C@H](C)[C@H](NC(=O)CN)C(=O)N[C@@H](Cc1ccccc1)C(=O)N[C@H]1CSCc2ccc(nc2)-c2ccc(cn2)CSC[C@@H](C(=O)N[C@@H](CCCCN)C(=O)N[C@@H](CC(N)=O)C(=O)N[C@@H](CC(C)C)C(=O)N[C@@H](CC(C)C)C(=O)N[C@H](C(=O)N[C@@H](CO)C(=O)NCC(=O)N[C@@H](CC(C)C)C(=O)N[C@@H](CCCCN)C(=O)NCC(N)=O)[C@@H](C)CC)NC(=O)[C@H](CCCCN)NC(=O)[C@H](CCCCN)NC(=O)CNC(=O)[C@H](C)NC(=O)[C@H](CC(C)C)NC(=O)[C@H](CCCCN)NC1=O [compound 57] (H-GIFCKLAGKKCKNLLISGLKG-NH2; linker 4-11 via 2,2'Bipyridine(5,5'-diCH2); N-terminus assumed)	16 µg/mL	16 µg/mL	>64 µg/mL	>64 µg/mL	>64 µg/mL	> 200 µg/mL	103 µg/mL (≈ 43.4 µM)
CC[C@H](C)[C@H](NC(=O)CN)C(=O)N[C@@H](Cc1ccccc1)C(=O)N[C@H]1CSCc2ccc3cc(ccc3c2)CSC[C@@H](C(=O)N[C@@H](CCCCN)C(=O)N[C@@H](CC(N)=O)C(=O)N[C@@H](CC(C)C)C(=O)N[C@@H](CC(C)C)C(=O)N[C@H](C(=O)N[C@@H](CO)C(=O)NCC(=O)N[C@@H](CC(C)C)C(=O)N[C@@H](CCCCN)C(=O)NCC(N)=O)[C@@H](C)CC)NC(=O)[C@H](CCCCN)NC(=O)[C@H](CCCCN)NC(=O)CNC(=O)[C@H](C)NC(=O)[C@H](CC(C)C)NC(=O)[C@H](CCCCN)NC1=O [compound 58] (H-GIFCKLAGKKCKNLLISGLKG-NH2; linker 4-11 via Naphthalene(2,6-diCH2); N-terminus assumed)	16 µg/mL	4 µg/mL	>64 µg/mL	64 µg/mL	32 µg/mL	131 µg/mL (≈ 55.9 µM)	51 µg/mL (≈ 21.8 µM)
CC[C@H](C)[C@H](NC(=O)CN)C(=O)N[C@@H](Cc1ccccc1)C(=O)N[C@@H](CO)C(=O)N[C@@H](CCCCN)C(=O)N[C@@H](CC(C)C)C(=O)N[C@H]1CSCc2ccc3cc(ccc3c2)CSC[C@@H](C(=O)N[C@@H](CC(C)C)C(=O)N[C@H](C(=O)N[C@@H](CO)C(=O)NCC(=O)N[C@@H](CC(C)C)C(=O)N[C@@H](CCCCN)C(=O)NCC(N)=O)[C@@H](C)CC)NC(=O)[C@H](CC(N)=O)NC(=O)[C@H](CCCCN)NC(=O)[C@H]([C@@H](C)CC)NC(=O)[C@H](CCCCN)NC(=O)[C@H](CCCCN)NC(=O)CNC1=O [compound 87] (H-GIFSKLCGKKIKNCLISGLKG-NH2; linker 7-14 via Naphthalene(2,6-diCH2))	4 µg/mL	4 µg/mL	64 µg/mL	8 µg/mL	8 µg/mL	44 µg/mL (≈ 18.7 µM)	54 µg/mL (≈ 22.9 µM)
